Results: the kinase profiling compilation of Christmann-Franck et al. (2016)
Blank lines part the entries; values can stand above or below the compound they belong to.

Legend:
Assay in all cases: KINOMEscan competition binding
Details in all cases: compound 10.0 µM
ACVR1B (human) = ACVR1B (human) (UniProt P36896)
AKT1 (human) = AKT1 (human) (UniProt P31749)
AKT2 (human) = AKT2 (human) (UniProt P31751)
CAMK2G (human) = CAMK2G (human) (UniProt Q13555)
CDK9 (human) = CDK9 (human) (UniProt P50750)
CHEK1 (human) = CHEK1 (human) (UniProt O14757)
CHEK2 (human) = CHEK2 (human) (UniProt O96017)
EPHA1 (human) = EPHA1 (human) (UniProt P21709)
EPHA2 (human) = EPHA2 (human) (UniProt P29317)
EPHA6 (human) = EPHA6 (human) (UniProt Q9UF33)
EPHA7 (human) = EPHA7 (human) (UniProt Q15375)
ERBB2 (human) = ERBB2 (human) (UniProt P04626)
FGFR1 (human) = FGFR1 (human) (UniProt P11362)
FGFR4 (human) = FGFR4 (human) (UniProt P22455)
INSRR (human) = INSRR (human) (UniProt P14616)
LIMK1 (human) = LIMK1 (human) (UniProt P53667)
MAP2K2 (human) = MAP2K2 (human) (UniProt P36507)
MAP4K1 (human) = MAP4K1 (human) (UniProt Q92918)
MAPK11 (human) = MAPK11 (human) (UniProt Q15759)
MAPK3 (human) = MAPK3 (human) (UniProt P27361)
MAPK4 (human) = MAPK4 (human) (UniProt P31152)
MAPKAPK2 (human) = MAPKAPK2 (human) (UniProt P49137)
MERTK (human) = MERTK (human) (UniProt Q12866)
MST1R (human) = MST1R (human) (UniProt Q04912)
NTRK1 (human) = NTRK1 (human) (UniProt P04629)
PAK2 (human) = PAK2 (human) (UniProt Q13177)
PIK3C2B (human) = PIK3C2B (human) (UniProt O00750)
PIK3CB (human) = PIK3CB (human) (UniProt P42338)
PIK3CD (human) = PIK3CD (human) (UniProt O00329)
PLK3 (human) = PLK3 (human) (UniProt Q9H4B4)
PRKCE (human) = PRKCE (human) (UniProt Q02156)
PRKD2 (human) = PRKD2 (human) (UniProt Q9BZL6)
RAF1 (human) = RAF1 (human) (UniProt P04049)
[1] = test system: RET (human), P07949 [M918T]
[2] = test system: RET (human), P07949 [V804L]
RPS6KA2 KD1 (human) = RPS6KA2 KD1 (human) (UniProt Q15349)
RPS6KA4 KD1 (human) = RPS6KA4 KD1 (human) (UniProt O75676)
RPS6KA5 KD1 (human) = RPS6KA5 KD1 (human) (UniProt O75582)
SGK110 (human) = SGK110 (human) (UniProt P0C264)
STK38L (human) = STK38L (human) (UniProt Q9Y2H1)
TXK (human) = TXK (human) (UniProt P42681)
TYRO3 (human) = TYRO3 (human) (UniProt Q06418)

CAMK2G (human), sequence (Q13555 whole entry, looked up): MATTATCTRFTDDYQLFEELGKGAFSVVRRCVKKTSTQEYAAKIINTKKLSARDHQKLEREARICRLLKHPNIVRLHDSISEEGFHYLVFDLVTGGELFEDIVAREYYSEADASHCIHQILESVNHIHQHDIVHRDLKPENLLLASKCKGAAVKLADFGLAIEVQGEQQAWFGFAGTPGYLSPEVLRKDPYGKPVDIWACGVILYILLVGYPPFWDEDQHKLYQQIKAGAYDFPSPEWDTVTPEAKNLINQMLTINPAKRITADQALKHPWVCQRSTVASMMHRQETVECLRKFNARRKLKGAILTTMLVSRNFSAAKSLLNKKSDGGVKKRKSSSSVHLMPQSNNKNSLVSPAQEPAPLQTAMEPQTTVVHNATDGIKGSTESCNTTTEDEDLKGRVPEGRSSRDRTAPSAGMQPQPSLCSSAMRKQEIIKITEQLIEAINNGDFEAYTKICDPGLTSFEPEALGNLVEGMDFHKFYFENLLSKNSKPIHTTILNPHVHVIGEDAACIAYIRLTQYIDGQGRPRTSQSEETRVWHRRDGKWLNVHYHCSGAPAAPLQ
RPS6KA5 KD1 (human), sequence (O75582 whole entry, looked up): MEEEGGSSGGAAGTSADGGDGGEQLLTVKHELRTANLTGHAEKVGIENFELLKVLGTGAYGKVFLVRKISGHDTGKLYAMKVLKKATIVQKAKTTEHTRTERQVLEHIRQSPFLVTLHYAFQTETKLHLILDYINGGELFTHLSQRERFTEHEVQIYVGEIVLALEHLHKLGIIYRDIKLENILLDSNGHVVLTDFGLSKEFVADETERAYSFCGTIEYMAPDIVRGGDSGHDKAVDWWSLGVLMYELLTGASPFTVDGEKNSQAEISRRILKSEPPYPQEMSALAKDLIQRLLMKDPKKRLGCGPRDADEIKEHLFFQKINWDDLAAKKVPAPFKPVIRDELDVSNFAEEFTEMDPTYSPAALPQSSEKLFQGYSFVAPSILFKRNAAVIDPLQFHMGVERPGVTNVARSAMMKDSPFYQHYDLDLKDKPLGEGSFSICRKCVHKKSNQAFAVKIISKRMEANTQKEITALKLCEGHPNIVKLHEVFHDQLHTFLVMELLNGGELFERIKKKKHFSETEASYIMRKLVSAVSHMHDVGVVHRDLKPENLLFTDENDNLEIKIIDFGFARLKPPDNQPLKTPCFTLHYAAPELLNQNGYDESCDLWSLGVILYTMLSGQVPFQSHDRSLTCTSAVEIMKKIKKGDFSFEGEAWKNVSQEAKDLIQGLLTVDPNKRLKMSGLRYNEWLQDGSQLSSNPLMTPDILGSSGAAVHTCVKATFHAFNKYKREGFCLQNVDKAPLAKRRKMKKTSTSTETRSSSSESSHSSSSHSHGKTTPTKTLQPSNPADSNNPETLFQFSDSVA
ACVR1B (human), sequence (P36896 whole entry, looked up): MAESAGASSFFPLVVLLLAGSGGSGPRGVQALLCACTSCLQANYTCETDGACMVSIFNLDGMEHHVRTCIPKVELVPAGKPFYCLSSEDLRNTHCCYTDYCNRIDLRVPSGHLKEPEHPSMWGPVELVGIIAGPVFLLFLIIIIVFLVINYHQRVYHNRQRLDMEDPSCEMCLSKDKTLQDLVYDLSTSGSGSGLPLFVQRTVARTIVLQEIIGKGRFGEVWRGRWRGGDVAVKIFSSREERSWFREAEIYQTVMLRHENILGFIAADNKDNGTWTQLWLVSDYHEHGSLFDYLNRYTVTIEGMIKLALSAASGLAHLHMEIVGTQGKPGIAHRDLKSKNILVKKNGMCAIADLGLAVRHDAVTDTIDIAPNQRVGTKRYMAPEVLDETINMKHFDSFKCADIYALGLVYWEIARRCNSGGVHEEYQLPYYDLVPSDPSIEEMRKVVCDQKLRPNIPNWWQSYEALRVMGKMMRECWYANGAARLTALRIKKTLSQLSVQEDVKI
MERTK (human), sequence (Q12866 whole entry, looked up): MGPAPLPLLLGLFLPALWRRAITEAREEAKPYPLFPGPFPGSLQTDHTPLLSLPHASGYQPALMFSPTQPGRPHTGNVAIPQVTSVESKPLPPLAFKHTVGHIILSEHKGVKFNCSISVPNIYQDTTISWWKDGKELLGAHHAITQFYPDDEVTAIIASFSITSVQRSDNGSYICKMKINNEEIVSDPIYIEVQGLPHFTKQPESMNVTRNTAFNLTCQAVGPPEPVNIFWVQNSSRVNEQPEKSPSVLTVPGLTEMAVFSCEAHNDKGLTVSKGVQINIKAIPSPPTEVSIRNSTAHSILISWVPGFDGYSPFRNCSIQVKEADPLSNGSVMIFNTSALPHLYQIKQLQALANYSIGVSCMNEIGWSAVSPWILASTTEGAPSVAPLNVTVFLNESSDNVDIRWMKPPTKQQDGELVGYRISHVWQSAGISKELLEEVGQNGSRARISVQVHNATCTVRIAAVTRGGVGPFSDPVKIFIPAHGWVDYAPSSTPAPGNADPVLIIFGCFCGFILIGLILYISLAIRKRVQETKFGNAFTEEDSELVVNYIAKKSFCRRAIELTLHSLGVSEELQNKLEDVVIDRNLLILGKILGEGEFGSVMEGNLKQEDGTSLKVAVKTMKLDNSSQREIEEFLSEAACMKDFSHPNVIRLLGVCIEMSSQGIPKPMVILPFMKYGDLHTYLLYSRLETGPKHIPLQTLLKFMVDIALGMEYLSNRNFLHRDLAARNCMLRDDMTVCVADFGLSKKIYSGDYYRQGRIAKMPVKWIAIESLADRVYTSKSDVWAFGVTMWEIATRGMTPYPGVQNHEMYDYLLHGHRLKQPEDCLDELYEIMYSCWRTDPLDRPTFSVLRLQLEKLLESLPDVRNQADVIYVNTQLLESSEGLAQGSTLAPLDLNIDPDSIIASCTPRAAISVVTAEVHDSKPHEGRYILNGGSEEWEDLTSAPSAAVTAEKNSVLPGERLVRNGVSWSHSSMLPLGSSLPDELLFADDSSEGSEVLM
LIMK1 (human), sequence (P53667 whole entry, looked up): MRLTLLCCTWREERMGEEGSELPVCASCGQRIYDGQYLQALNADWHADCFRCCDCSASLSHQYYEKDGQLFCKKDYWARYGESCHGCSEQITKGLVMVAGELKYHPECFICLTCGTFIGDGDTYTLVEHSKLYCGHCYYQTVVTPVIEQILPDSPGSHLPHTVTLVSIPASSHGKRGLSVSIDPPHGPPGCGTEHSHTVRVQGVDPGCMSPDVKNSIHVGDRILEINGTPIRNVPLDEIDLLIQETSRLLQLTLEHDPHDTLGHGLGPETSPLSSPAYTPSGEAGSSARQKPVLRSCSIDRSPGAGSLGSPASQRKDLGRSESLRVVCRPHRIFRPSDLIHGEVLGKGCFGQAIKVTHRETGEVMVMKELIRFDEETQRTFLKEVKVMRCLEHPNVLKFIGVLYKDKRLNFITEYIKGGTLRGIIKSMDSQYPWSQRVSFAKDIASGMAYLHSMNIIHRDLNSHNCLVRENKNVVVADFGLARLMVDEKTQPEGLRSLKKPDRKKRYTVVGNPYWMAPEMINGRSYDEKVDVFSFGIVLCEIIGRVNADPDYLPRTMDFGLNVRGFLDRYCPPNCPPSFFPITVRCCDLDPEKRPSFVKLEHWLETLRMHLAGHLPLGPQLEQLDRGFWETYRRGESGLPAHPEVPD
PRKD2 (human), sequence (Q9BZL6 whole entry, looked up): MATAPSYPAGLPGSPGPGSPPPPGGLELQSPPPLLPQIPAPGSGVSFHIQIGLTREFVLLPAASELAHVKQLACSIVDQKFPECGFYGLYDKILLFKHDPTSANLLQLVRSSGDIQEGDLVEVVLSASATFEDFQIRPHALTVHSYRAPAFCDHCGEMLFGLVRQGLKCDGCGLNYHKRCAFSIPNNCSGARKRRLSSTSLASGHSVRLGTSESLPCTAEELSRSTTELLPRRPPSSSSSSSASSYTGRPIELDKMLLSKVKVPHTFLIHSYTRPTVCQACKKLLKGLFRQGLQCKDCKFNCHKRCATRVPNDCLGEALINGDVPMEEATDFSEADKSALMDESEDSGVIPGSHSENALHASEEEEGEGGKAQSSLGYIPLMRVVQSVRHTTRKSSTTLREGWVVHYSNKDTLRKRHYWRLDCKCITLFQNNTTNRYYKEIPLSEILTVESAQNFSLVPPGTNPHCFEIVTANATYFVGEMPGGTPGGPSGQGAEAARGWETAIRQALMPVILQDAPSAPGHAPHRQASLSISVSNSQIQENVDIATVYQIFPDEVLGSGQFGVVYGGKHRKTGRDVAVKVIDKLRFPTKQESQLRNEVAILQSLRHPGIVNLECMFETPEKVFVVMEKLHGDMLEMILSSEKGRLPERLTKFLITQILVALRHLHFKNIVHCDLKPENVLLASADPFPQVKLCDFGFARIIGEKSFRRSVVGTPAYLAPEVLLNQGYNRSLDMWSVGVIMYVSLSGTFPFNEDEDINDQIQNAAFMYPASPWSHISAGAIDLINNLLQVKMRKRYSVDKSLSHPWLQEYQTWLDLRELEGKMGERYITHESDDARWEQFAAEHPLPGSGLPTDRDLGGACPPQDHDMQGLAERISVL
MAPK3 (human), sequence (P27361 whole entry, looked up): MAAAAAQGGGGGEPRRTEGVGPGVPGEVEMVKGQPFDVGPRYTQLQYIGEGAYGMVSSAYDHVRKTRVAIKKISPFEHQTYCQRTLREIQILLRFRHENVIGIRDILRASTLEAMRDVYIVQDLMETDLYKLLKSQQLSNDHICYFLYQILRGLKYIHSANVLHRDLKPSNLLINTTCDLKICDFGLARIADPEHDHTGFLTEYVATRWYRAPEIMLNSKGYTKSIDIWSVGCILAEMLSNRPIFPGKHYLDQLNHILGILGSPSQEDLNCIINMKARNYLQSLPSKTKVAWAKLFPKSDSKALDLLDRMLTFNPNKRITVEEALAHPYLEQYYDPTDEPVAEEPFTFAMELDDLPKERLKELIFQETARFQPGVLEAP

kinase still bound, per cent of control (ACVR1B (human)): 100%
kinase still bound, per cent of control (AKT1 (human)): 100%
kinase still bound, per cent of control (AKT2 (human)): 100%
kinase still bound, per cent of control (CAMK2G (human)): 100%
kinase still bound, per cent of control (CDK9 (human)): 100%
kinase still bound, per cent of control (CHEK1 (human)): 98%
kinase still bound, per cent of control (CHEK2 (human)): 100%
kinase still bound, per cent of control (EPHA1 (human)): 100%
kinase still bound, per cent of control (EPHA2 (human)): 100%
kinase still bound, per cent of control (EPHA6 (human)): 100%
kinase still bound, per cent of control (EPHA7 (human)): 100%
kinase still bound, per cent of control (ERBB2 (human)): 100%
kinase still bound, per cent of control (FGFR1 (human)): 100%
kinase still bound, per cent of control (FGFR4 (human)): 100%
kinase still bound, per cent of control (INSRR (human)): 100%
kinase still bound, per cent of control (LIMK1 (human)): 100%
kinase still bound, per cent of control (MAP2K2 (human)): 100%
kinase still bound, per cent of control (MAP4K1 (human)): 80%
kinase still bound, per cent of control (MAPK11 (human)): 100%
kinase still bound, per cent of control (MAPK3 (human)): 100%
kinase still bound, per cent of control (MAPK4 (human)): 88%
kinase still bound, per cent of control (MAPKAPK2 (human)): 96%
kinase still bound, per cent of control (MERTK (human)): 82%
kinase still bound, per cent of control (MST1R (human)): 100%
kinase still bound, per cent of control (NTRK1 (human)): 77%
kinase still bound, per cent of control (PAK2 (human)): 100%
kinase still bound, per cent of control (PIK3C2B (human)): 97%
kinase still bound, per cent of control (PIK3CB (human)): 100%
kinase still bound, per cent of control (PIK3CD (human)): 91%
kinase still bound, per cent of control (PLK3 (human)): 100%
kinase still bound, per cent of control (PRKCE (human)): 100%
kinase still bound, per cent of control (PRKD2 (human)): 100%
kinase still bound, per cent of control (RAF1 (human)): 100%
kinase still bound, per cent of control [1]: 100%
kinase still bound, per cent of control [2]: 100%
kinase still bound, per cent of control (RPS6KA2 KD1 (human)): 100%
kinase still bound, per cent of control (RPS6KA4 KD1 (human)): 100%
kinase still bound, per cent of control (RPS6KA5 KD1 (human)): 99%
kinase still bound, per cent of control (SGK110 (human)): 100%
kinase still bound, per cent of control (STK38L (human)): 100%
kinase still bound, per cent of control (TXK (human)): 96%
kinase still bound, per cent of control (TYRO3 (human)): 100%
Structure (SMILES): CN1C(=O)c2ccccc2N(C)c2nc(NS(=O)(=O)c3ccc(N)cc3)ncc21

kinase still bound, per cent of control (ACVR1B (human)): 100%
kinase still bound, per cent of control (AKT1 (human)): 91%
kinase still bound, per cent of control (AKT2 (human)): 100%
kinase still bound, per cent of control (CAMK2G (human)): 95%
kinase still bound, per cent of control (CDK9 (human)): 100%
kinase still bound, per cent of control (CHEK1 (human)): 100%
kinase still bound, per cent of control (CHEK2 (human)): 97%
kinase still bound, per cent of control (EPHA1 (human)): 100%
kinase still bound, per cent of control (EPHA2 (human)): 100%
kinase still bound, per cent of control (EPHA6 (human)): 100%
kinase still bound, per cent of control (EPHA7 (human)): 100%
kinase still bound, per cent of control (ERBB2 (human)): 6.6%
kinase still bound, per cent of control (FGFR1 (human)): 100%
kinase still bound, per cent of control (FGFR4 (human)): 97%
kinase still bound, per cent of control (INSRR (human)): 55%
kinase still bound, per cent of control (LIMK1 (human)): 95%
kinase still bound, per cent of control (MAP2K2 (human)): 100%
kinase still bound, per cent of control (MAP4K1 (human)): 100%
kinase still bound, per cent of control (MAPK11 (human)): 100%
kinase still bound, per cent of control (MAPK3 (human)): 100%
kinase still bound, per cent of control (MAPK4 (human)): 100%
kinase still bound, per cent of control (MAPKAPK2 (human)): 95%
kinase still bound, per cent of control (MERTK (human)): 100%
kinase still bound, per cent of control (MST1R (human)): 100%
kinase still bound, per cent of control (NTRK1 (human)): 76%
kinase still bound, per cent of control (PAK2 (human)): 94%
kinase still bound, per cent of control (PIK3C2B (human)): 100%
kinase still bound, per cent of control (PIK3CB (human)): 83%
kinase still bound, per cent of control (PIK3CD (human)): 100%
kinase still bound, per cent of control (PLK3 (human)): 100%
kinase still bound, per cent of control (PRKCE (human)): 60%
kinase still bound, per cent of control (PRKD2 (human)): 100%
kinase still bound, per cent of control (RAF1 (human)): 94%
kinase still bound, per cent of control [1]: 100%
kinase still bound, per cent of control [2]: 100%
kinase still bound, per cent of control (RPS6KA2 KD1 (human)): 82%
kinase still bound, per cent of control (RPS6KA4 KD1 (human)): 100%
kinase still bound, per cent of control (RPS6KA5 KD1 (human)): 100%
kinase still bound, per cent of control (SGK110 (human)): 52%
kinase still bound, per cent of control (STK38L (human)): 100%
kinase still bound, per cent of control (TXK (human)): 100%
kinase still bound, per cent of control (TYRO3 (human)): 100%
Structure (SMILES): COc1cc(N2CCN(C)CC2)ccc1Nc1ncc2c(n1)N(C)c1ccccc1N(C)C2=O

kinase still bound, per cent of control (ACVR1B (human)): 100%
kinase still bound, per cent of control (AKT1 (human)): 100%
kinase still bound, per cent of control (AKT2 (human)): 100%
kinase still bound, per cent of control (CAMK2G (human)): 80%
kinase still bound, per cent of control (CDK9 (human)): 100%
kinase still bound, per cent of control (CHEK1 (human)): 100%
kinase still bound, per cent of control (CHEK2 (human)): 42%
kinase still bound, per cent of control (EPHA1 (human)): 100%
kinase still bound, per cent of control (EPHA2 (human)): 95%
kinase still bound, per cent of control (EPHA6 (human)): 82%
kinase still bound, per cent of control (EPHA7 (human)): 92%
kinase still bound, per cent of control (ERBB2 (human)): 92%
kinase still bound, per cent of control (FGFR1 (human)): 95%
kinase still bound, per cent of control (FGFR4 (human)): 56%
kinase still bound, per cent of control (INSRR (human)): 78%
kinase still bound, per cent of control (LIMK1 (human)): 96%
kinase still bound, per cent of control (MAP2K2 (human)): 99%
kinase still bound, per cent of control (MAP4K1 (human)): 96%
kinase still bound, per cent of control (MAPK11 (human)): 74%
kinase still bound, per cent of control (MAPK3 (human)): 99%
kinase still bound, per cent of control (MAPK4 (human)): 100%
kinase still bound, per cent of control (MAPKAPK2 (human)): 100%
kinase still bound, per cent of control (MERTK (human)): 100%
kinase still bound, per cent of control (MST1R (human)): 82%
kinase still bound, per cent of control (NTRK1 (human)): 82%
kinase still bound, per cent of control (PAK2 (human)): 67%
kinase still bound, per cent of control (PIK3C2B (human)): 100%
kinase still bound, per cent of control (PIK3CB (human)): 92%
kinase still bound, per cent of control (PIK3CD (human)): 48%
kinase still bound, per cent of control (PLK3 (human)): 0.75%
kinase still bound, per cent of control (PRKCE (human)): 91%
kinase still bound, per cent of control (PRKD2 (human)): 45%
kinase still bound, per cent of control (RAF1 (human)): 98%
kinase still bound, per cent of control [1]: 100%
kinase still bound, per cent of control [2]: 100%
kinase still bound, per cent of control (RPS6KA2 KD1 (human)): 77%
kinase still bound, per cent of control (RPS6KA4 KD1 (human)): 96%
kinase still bound, per cent of control (RPS6KA5 KD1 (human)): 59%
kinase still bound, per cent of control (SGK110 (human)): 100%
kinase still bound, per cent of control (STK38L (human)): 94%
kinase still bound, per cent of control (TXK (human)): 100%
kinase still bound, per cent of control (TYRO3 (human)): 100%
Structure (SMILES): COc1cc(N2CCC(O)CC2)ccc1Nc1ncc2c(n1)N1CCc3cccc(c31)C(=O)N2C
